Assay results from patent publication EP4813989A1, “CRYSTAL, PHARMACEUTICAL COMPOSITION, PREPARATION METHOD THEREFOR, AND USE THEREOF” (TYK Medicines, Inc., priority 2023, dated 2025).

Columns and labels:
Assay type in all cases: physicochemical
[1] = Stability study of tablets (40°C/75%RH): related substances; conditions: condition N/A
Protocol: The inventors produced tablet 1 (40 mg) and the tablet 2 (10 mg) according to the formulations in Example 1 and Example 2. The above samples were stored under conditions of 40°C/75%RH (open), 40°C/75%RH (sealed), and 40°C/75%RH (sealed+1 g desiccant) to investigate dissolutions and related substances.

[2] = pH-dependent solubility study; conditions: increasing with rising pH
Description: Following oral administration, the drug can be absorbed at multiple different sites along the gastrointestinal tract (including via the stomach, duodenum, jejunum, ileum, and colon). There is a significant pH change between the stomach (pH 1-3.5) and the small intestine (pH 4-8), resulting in different pH conditions at each absorption site. […] In dissolution studies, it was observed that the sink condition can be satisfied in pH 6.8 medium supplemented with SDS.

[3] = Solid form stability on standing (XRD/PLM)
Description: The resulting solid sample was subjected to a corresponding characterization test. An XRD pattern of the sample can be seen in FIG. 8.
A crystal form E sample was obtained by suspending and stirring the amorphous sample prepared in Example 2 in a 1,4-dioxane/n-heptane solvent system at room temperature. XRD results of the sample can be seen in FIG. 9. […] On this basis, it was inferred that the crystal form E was a metastable crystal form.
XRD results of the sample can be seen in FIG. 17.
XRD results of the sample can be seen in FIG. 20. TGA/DSC results can be seen in FIG. 21. […] An ^1H NMR spectrum of the crystal form D was obtained by a test in DMSO-d6, and no obvious solvent residue was observed. […] Based on nuclear magnetic resonance data and heating test results of the sample, it was inferred that the crystal form D was a hydrate crystal form.

[4] = listed as Active pharmaceutical ingredient^*2

## C[C@@H](Nc1ccn2ncc(C3=NOC(C)(C)N3)c2n1)c1cc(F)cc(F)c1F.O [Active pharmaceutical ingredient]
[1]
  Individual impurity (RRT) 0.56: <0.05%
  Individual impurity (RRT) 0.66/ 0.67/ 0.69/ 0.70: 0.22%
  Individual impurity (RRT) 0.71/ 0.72/ 0.73/ 0.74: 0.18%
  Individual impurity (RRT) 0.91: <0.05%
  Individual impurity (RRT) 1.02: 0.27%
  Individual impurity (RRT) 1.05/ 1.06: 0.07%
  Individual impurity (RRT) 1.07/ 1.08: 0.18%
  Individual impurity (RRT) 1.14: <0.05%
  Total impurities: 0.92%
[1]; [4]
  Individual impurity (RRT) 0.71/ 0.72/ 0.73/ 0.74: 0.19%
  Individual impurity (RRT) 1.02: 0.32%
  Individual impurity (RRT) 1.07/ 1.08: 0.19%
  Total impurities: 0.99%

## C[C@@H](Nc1ccn2ncc(C3=NOC(C)(C)N3)c2n1)c1cc(F)cc(F)c1F [TY-2136b, (R)-3-(5,5-dimethyl-4,5-dihydro-1,2,4-oxadiazol-3-yl)-N-(1-(2,3,5-trifluorophenyl)ethyl)pyrazolo[1 ,5-a]pyrimidin-5-amine]
[2]
  solubility: generally low

## C[C@@H](Nc1ccn2ncc(C3=NOC(C)(C)N3)c2n1)c1cc(F)cc(F)c1F [crystal form B]
[3]; room humidity (17.3%RH), same day
  Solid form stability: rapidly transformed into a crystal form C

## C[C@@H](Nc1ccn2ncc(C3=NOC(C)(C)N3)c2n1)c1cc(F)cc(F)c1F [crystal form D]
[3]; heating to 120°C and cooling to room temperature
  Solid form stability: transformed into an amorphous form
[3]; standing sealed at room temperature for 2 days
  Crystallinity: significantly reduced
